Test results as given in patent US6303797A, “Sesterterpene derivatives exhibiting antifungal activities” (Banyu Pharmaceutical Co., Ltd., priority 1998, dated 2001).
≈ marks a conversion by molar mass, not a printed value.

These compounds were tested on Trichosporon cutaneum IFO 1189 (assay: Antifungal activity, minimum growth inhibition concentration (MIC), agar plate dilution method). Details: Cutaneotrichosporon cutaneum, IFO1189, 48 h; agar plate dilution method, Trichosporon cutaneum IFO 1189, culture at 37° C. for 2 days, yeast-nitrogen base with 1% glucose.
Format: cell-based

| SMILES | MIC [µg/mL] |
| --- | --- |
| C=C1C2CC3C(C(C)C)C(OS(=O)(=O)/C=C/c4ccccc4)CC3(C)CC2C(C)=CCC2C(C)OC(=O)C(O)C12O (stereo not shown) [Compound 31, 1,13a-dihydroxy-11-isopropyl-4,7,8a-trimethyl-13-methylene-2-oxo-1,2,4,4a,5,7a,8,8a,9,10,11,11a,12,12a,13,13a-hexadecahydroindeno[5',6':4,5]cycloocta[1,2-c]pyran-10-yl (E)-2-phenyl-1-ethene-1sulfonate] | 12.5 (≈ 21.4 µM) |
| C=C1C2CC3C(C(C)C)C(OC(=O)NCc4ccccc4)CC3(C)CC2C(C)=CCC2C(C)OC(=O)C(O)C12O (stereo not shown) [Compound 40, 1,13a-dihydroxy-11-isopropyl-4,7,8a-trimethyl-13-methylene-2-oxo-1,2,4,4a,5,7a,8,8a,9,10,11,11a,12,12a,13,13a-hexadecahydroindeno[5',6':4,5]cycloocta[1,2-c]pyran-10-yl N-benzylcarbamate] | 6.25 (≈ 11.3 µM) |
| C=C1C2CC3C(C(C)C)C(OC(=O)CC(C)C)CC3(C)CC2C(C)=CCC2C(C)OC(=O)C(O)C12O (stereo not shown) [Compound 9, 1,13a-dihydroxy-11-isopropyl-4,7,8a-trimethyl-13-methylene-2-oxo-1,2,4,4a,5,7a,8,8a,9,10,11,11a,12,12a,13,13a-hexadecahydroindeno[5',6':4,5]cycloocta[1,2-c]pyran-10-yl 3-methylbutanoate] | 6.25 (≈ 12.4 µM) |
| C=C1C2CC3C(C(C)C)C(OC(=O)CCC)CC3(C)CC2C(C)=CCC2C(C)OC(=O)C(O)C12O (stereo not shown) [Compound 5, 1,13a-dihydroxy-11-isopropyl-4,7,8a-trimethyl-13-methylene-2-oxo-1,2,4,4a,5,7a,8,8a,9,10,11,11a,12,12a,13,13a-hexadecahydroindeno[5',6':4,5]cycloocta[1,2-c]pyran-10-yl butanoate] | 6.25 (≈ 12.8 µM) |
| C=C1C2CC3C(C(C)C)C(OC(=O)c4ccc(Cl)nc4)CC3(C)CC2C(C)=CCC2C(C)OC(=O)C(O)C12O (stereo not shown) [Compound 26, 1,13a-dihydroxy-11-isopropyl-4,7,8a-trimethyl-13-methylene-2-oxo-1,2,4,4a,5,7a,8,8a,9,10,11,11a,12,12a,13,13a-hexadecahydroindeno[5',6':4,5]cycloocta[1,2-c]pyran-10-yl 6-chloronicotinate] | 3.13 (≈ 5.61 µM) |
| C=C1C2CC3C(C(C)C)C(OC(=O)NC4CCCCO4)CC3(C)CC2C(C)=CCC2C(C)OC(=O)C(O)C12O (stereo not shown) [Compound 42, 1,13a-dihydroxy-11-isopropyl-4,7,8a-trimethyl-13-methylene-2-oxo-1,2,4,4a,5,7a,8,8a,9,10,11,11a,12,12a,13,13a-hexadecahydroindeno[5',6':4,5]cycloocta[1,2-c]pyran-10-yl N-tetrahydro-2H-pyran-2-ylcarbamate] | 12.5 (≈ 22.9 µM) |
| C=C1C2CC3C(C(C)C)C(OS(=O)(=O)CCCC)CC3(C)CC2C(C)=CCC2C(C)OC(=O)C(O)C12O (stereo not shown) [Compound 32, 1,13a-dihydroxy-11-isopropyl-4,7,8a-trimethyl-13-methylene-2-oxo-1,2,4,4a,5,7a,8,8a,9,10,11,11a,12,12a,13,13a-hexadecahydroindeno[5',6':4,5]cycloocta[1,2-c]pyran-10-yl 1butanesulfonate] | 6.25 |
| C=C1C2CC3C(C(C)C)C(OC(=O)Nc4ccc(F)cc4)CC3(C)CC2C(C)=CCC2C(C)OC(=O)C(O)C12O (stereo not shown) [Compound 39, 1,13a-dihydroxy-11-isopropyl-4,7,8a-trimethyl-13-methylene-2-oxo-1,2,4,4a,5,7a,8,8a,9,10,11,11a,12,12a,13,13a-hexadecahydroindeno[5',6':4,5]cycloocta[1,2-c]pyran-10-yl N-(4-fluorophenyl)carbamate] | 3.13 (≈ 5.63 µM) |
| C=C1C2CC3C(C(C)C)C(OC(=O)Nc4ccccc4)CC3(C)CC2C(C)=CCC2C(C)OC(=O)C(O)C12O (stereo not shown) [Compound 43, 1,13a-dihydroxy-11-isopropyl-4,7,8a-trimethyl-13-methylene-2-oxo-1,2,4,4a,5,7a,8,8a,9,11a,12,12a,13,13a-hexadecahydroindeno[5',6':4,5]cycloocta [1,2-c]pyran-10-yl N-phenylcarbamate] | 3.13 (≈ 5.82 µM) |
| C=C1C2CC3C(C(C)C)C(OC(=O)NC4CCCCC4)CC3(C)CC2C(C)=CCC2C(C)OC(=O)C(O)C12O (stereo not shown) [Compound 46, 1,13a-dihydroxy-11-isopropyl-4,7,8a-trimethyl-13-methylene-2-oxo-1,2,4,4a,5,7a,8,8a,9,10,11,11a,12,12a,13,13a-hexadecahydroindeno[5',6':4,5]cycloocta[1,2-c]pyran-10-yl N-cyclohexylcarbamate] | 12.5 (≈ 23 µM) |
| C=C1C2CC3C(C(C)C)C(OC(=O)c4ccc(F)cc4)CC3(C)CC2C(C)=CCC2C(C)OC(=O)C(O)C12O (stereo not shown) [Compound 23, 1,13a-dihydroxy-11-isopropyl-4,7,8a-trimethyl-13-methylene-2-oxo-1,2,4,4a,5,7a,8,8a,9,10,11,11a,12,12a,13,13a-hexadecahydroindeno[5',6':4,5]cycloocta[1,2-c]pyran-10-yl 4-fluorobenzoate] | 12.5 (≈ 23.1 µM) |
| C=C1C2CC3C(C(C)C)C(OC(=O)C(O)CCCC)CC3(C)CC2C(C)=CCC2C(C)OC(=O)C(O)C12O (stereo not shown) [Compound 14, 1,13a-dihydroxy-11-isopropyl-4,7,8a-trimethyl-13-methylene-2-oxo-1,2,4,4a,5,7a,8,8a,9,10,11,11a,12,12a,13,13a-hexadecahydroindeno[5',6':4,5]cycloocta[1,2-c]pyran-10-yl 2-hydroxyhexanoate] | 12.5 (≈ 23.5 µM) |
| C=C1C2CC3C(C(C)C)C(NC(=O)CC(C)(O)CC(C)CC)CC3(C)CC2C(C)=CCC2C(C)OC(=O)C(O)C12O (stereo not shown) [Compound 54, N'-(1,13a-dihydroxy-11-isopropyl-4,7,8a-trimethyl-13-methylene-2-oxo-1,2,4,4a,5,7a,8,8a,9,10,11,11a,12,12a,13,13a-hexadecahydroindeno[5',6': 4,5]cycloocta [1,2-c]pyran-10-yl)-3-hydroxy-3,5-dimethylheptanamide] | 12.5 (≈ 21.8 µM) |
| C=C1C2CC3C(C(C)C)C(NC(=O)Cc4csc5ccccc45)CC3(C)CC2C(C)=CCC2C(C)OC(=O)C(O)C12O (stereo not shown) [Compound 64, N'-(1,13a-dihydroxy-11-isopropyl-4,7,8a-trimethyl-13-methylene-2-oxo-1,2,4,4a,5,7a,8,8a,9,10,11,11a,12,12a,13,13a-hexadecahydroindeno[5',6': 4,5]cycloocta[1,2-c]pyran-10-yl)-3-benzo[b]thienylacetamide] | 6.25 (≈ 10.6 µM) |
| C=C1C2CC3C(C(C)C)C(NC(=O)Cc4ccc(Cl)cc4)CC3(C)CC2C(C)=CCC2C(C)OC(=O)C(O)C12O (stereo not shown) [Compound 65, N'-(1,13a-dihydroxy-11-isopropyl-4,7,8a-trimethyl-13-methylene-2-oxo-1,2,4,4a,5,7a,8,8a,9,10,11,11a,12,12a,13,13a-hexadecahydroindeno[5',6': 4,5]cycloocta[1,2-c]pyran-10-yl)-4-chlorophenylacetamide] | 6.25 (≈ 11 µM) |
| C[C@@H]1[C@H](O)[C@@H](C)/C=C/C=C/C=C/C=C/C=C/C=C/C=C/[C@H](O[C@@H]2O[C@H](C)[C@@H](O)[C@H](N)[C@@H]2O)C[C@@H]2O[C@](O)(C[C@@H](O)C[C@@H](O)[C@H](O)CC[C@@H](O)C[C@@H](O)CC(=O)O[C@H]1C)C[C@H](O)[C@H]2C(=O)O [amphotericin B, reference compound] | ≥ 100 |
| C=C1C2CC3C(C(C)C)C(OC(=O)NCC)CC3(C)CC2C(C)=CCC2C(C)OC(=O)C(O)C12O (stereo not shown) [Compound 33, 1,13a-dihydroxy-11-isopropyl-4,7,8a-trimethyl-13-methylene-2-oxo-1,2,4,4a,5,7a,8,8a,9,10,11,11a,12,12a,13,13a-hexadecahydroindeno[5',6':4,5]cycloocta[1,2-c]pyran-10-yl N-ethylcarbamate] | 6.25 (≈ 12.8 µM) |

Same assay, conditions: agar plate dilution method, Trichosporon cutaneum IFO 1189, culture at 37° C. for 2 days, yeast-nitrogen base with 1% glucose

| SMILES | MIC (minimum growth inhibition concentration) [µg/mL] |
| --- | --- |
| C=C1C2CC3C(C(C)C)C(OC(=O)CC(C)(O)CC(C)CC)CC3(C)CC2C(C)=CCC2C(C)OC(=O)C(O)C12O (stereo not shown) [BE-49385 A, reference compound] | ≥ 100 |

Same assay, conditions: fungi against which BE-49385 A does not show an antifungal activity

| SMILES | antifungal activity (in words) |
| --- | --- |
| C=C1C2CC3C(C(C)C)C(OC(=O)CC(C)(O)CC(C)CC)CC3(C)CC2C(C)=CCC2C(C)OC(=O)C(O)C12O (stereo not shown) [BE-49385 A, reference compound] | does not show an antifungal activity |
